Tests used:
Experiment in all cases: relative viability (nuclei count vs DMSO), 5 days (fraction); higher = more cells survive
RO-3306 + Luminespib = compound: C1=CC2=C(C=CC(=C2)C=C3C(=O)NC(=NCC4=CC=CS4)S3)N=C1 [RO-3306] + CCNC(=O)c1noc(-c2cc(C(C)C)c(O)cc2O)c1-c1ccc(CN2CCOCC2)cc1 [Luminespib] (partner 0.01 µM)
Procedure, shortened: (§1)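 Relative viability was taken as the ratio of nuclei in treated wells to nuclei in vehicle wells. Lung cancer cell lines in 1536-well plates received compounds by pin tool one day after seeding, either one drug alone or a fixed anchor-drug dose plus five library-drug doses (not always all listed) in √10 steps. Nuclei were counted on 4× images after 5 days of treatment, and values are medians of duplicate plates.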

RO-3306 + OSI-027 = compound: C1=CC2=C(C=CC(=C2)C=C3C(=O)NC(=NCC4=CC=CS4)S3)N=C1 [RO-3306] + COc1cccc2cc(-c3nc([C@H]4CC[C@H](C(=O)O)CC4)n4ncnc(N)c34)[nH]c12 [OSI-027] (partner 0.5 µM)
Procedure, shortened: as §1

RO-3306 + Decitabine = compound: C1=CC2=C(C=CC(=C2)C=C3C(=O)NC(=NCC4=CC=CS4)S3)N=C1 [RO-3306] + Nc1ncn([C@H]2C[C@H](O)[C@@H](CO)O2)c(=O)n1 [Decitabine] (partner 2 µM)
Procedure, shortened: as §1

RO-3306 + Trametinib = compound: C1=CC2=C(C=CC(=C2)C=C3C(=O)NC(=NCC4=CC=CS4)S3)N=C1 [RO-3306] + CC(=O)Nc1cccc(-n2c(=O)n(C3CC3)c(=O)c3c(Nc4ccc(I)cc4F)n(C)c(=O)c(C)c32)c1 [Trametinib] (partner 0.02 µM)
Procedure, shortened: as §1

Cell Line | relative viability (RO-3306 + Luminespib; first compound 0.01 µM) | relative viability (RO-3306 + Luminespib; first compound 0.03162 µM) | relative viability (RO-3306 + Luminespib; first compound 0.1 µM) | relative viability (RO-3306 + Luminespib; first compound 0.3162 µM) | relative viability (RO-3306 + Luminespib; first compound 1 µM) | relative viability (RO-3306 + OSI-027; first compound 0.01 µM) | relative viability (RO-3306 + OSI-027; first compound 0.03162 µM) | relative viability (RO-3306 + OSI-027; first compound 0.1 µM) | relative viability (RO-3306 + OSI-027; first compound 0.3162 µM) | relative viability (RO-3306 + OSI-027; first compound 1 µM) | relative viability (RO-3306 + Decitabine; first compound 0.01 µM) | relative viability (RO-3306 + Decitabine; first compound 0.03162 µM) | relative viability (RO-3306 + Decitabine; first compound 0.1 µM) | relative viability (RO-3306 + Decitabine; first compound 0.3162 µM) | relative viability (RO-3306 + Decitabine; first compound 1 µM) | relative viability (RO-3306 + Trametinib; first compound 0.01 µM) | relative viability (RO-3306 + Trametinib; first compound 0.03162 µM) | relative viability (RO-3306 + Trametinib; first compound 0.1 µM) | relative viability (RO-3306 + Trametinib; first compound 0.3162 µM) | relative viability (RO-3306 + Trametinib; first compound 1 µM)
201T | 1.02 | 1.05 | 1.02 | 1.01 | 1.05 | 0.586 | 0.729 | 0.709 | 0.779 | 0.672 | 0.824 | 0.849 | 0.879 | 0.855 | 0.893 | 0.691 | 0.727 | 0.706 | 0.725 | 0.671
A549 | – | – | – | – | – | – | – | – | – | – | 0.284 | – | 0.245 | 0.254 | 0.36 | – | – | – | – | –
A-427 | 0.94 | 0.867 | 0.928 | 0.884 | 1 | 0.459 | 0.457 | 0.423 | 0.451 | 0.497 | 0.615 | 0.545 | 0.543 | 0.572 | 0.568 | 0.782 | 0.802 | 0.679 | 0.758 | 0.669
ABC-1 | 0.548 | 0.719 | 0.527 | 0.658 | 0.898 | 0.411 | 0.375 | 0.402 | 0.483 | 0.403 | 0.953 | 0.904 | 0.828 | 1.03 | 1.06 | – | – | – | – | –
BEN | 0.331 | 0.337 | 0.33 | 0.4 | 0.447 | 0.333 | 0.3 | 0.256 | 0.297 | 0.283 | 0.645 | 0.69 | 0.723 | 0.725 | 0.824 | 1 | 0.895 | 1.02 | 1.13 | 1.13
CAL-12T | 0.68 | 0.517 | 0.228 | 0.433 | 0.604 | 0.378 | 0.615 | 0.585 | 0.616 | 0.597 | – | – | – | – | – | 0.374 | 0.302 | 0.309 | 0.245 | 0.324
COR-L23 | 0.648 | 0.591 | 0.778 | 0.868 | 0.562 | 0.741 | 0.688 | 0.783 | 0.632 | 0.514 | 0.342 | 0.405 | 0.487 | 0.446 | 0.394 | 0.656 | 0.374 | 0.558 | 0.532 | 0.656
COR-L 105 | 1.07 | 0.885 | 0.606 | 0.65 | 0.547 | 0.589 | 0.607 | 0.64 | 0.864 | 0.735 | 0.652 | 0.607 | 0.596 | 0.623 | 0.658 | 0.392 | 0.491 | 0.427 | 0.434 | 0.538
ChaGo-K-1 | 0.594 | 0.585 | 0.469 | 0.56 | 0.32 | 0.59 | 0.365 | 0.455 | 0.474 | 0.341 | 0.514 | 0.508 | 0.521 | 0.476 | 0.363 | 0.954 | 0.829 | 0.859 | 0.856 | 0.559
EKVX | 1.02 | 0.689 | 0.841 | 0.959 | 0.905 | 0.757 | 0.646 | 0.661 | 0.955 | 0.684 | 0.298 | 0.277 | 0.385 | 0.322 | 0.29 | 0.328 | 0.298 | 0.362 | 0.328 | 0.324
EMC-BAC-2 | 1.25 | 0.983 | 1.23 | 1.16 | 1.15 | 0.306 | 0.36 | 0.358 | 0.352 | 0.315 | 1.1 | 0.915 | 0.963 | 0.954 | 0.972 | 0.917 | 0.83 | 0.902 | 0.889 | 0.84
EPLC-272H | 0.239 | 0.114 | 0.142 | 0.367 | 0.111 | 0.259 | 0.252 | 0.29 | 0.223 | 0.283 | 0.367 | – | 0.335 | 0.324 | 0.355 | 0.272 | – | 0.293 | 0.284 | 0.271
H3255 | 0.899 | 0.938 | 0.763 | 0.837 | 0.866 | 0.671 | 0.476 | 0.604 | 0.594 | 0.504 | 0.727 | 0.509 | 0.625 | 0.641 | 0.57 | 0.791 | 0.533 | 0.584 | 0.557 | 0.546
HARA | 0.485 | 0.509 | 0.676 | 0.455 | 0.679 | 0.661 | 0.449 | 0.527 | 0.612 | 0.436 | 0.523 | – | 0.58 | 0.654 | 0.692 | 0.448 | – | 0.519 | 0.694 | 0.741
HCC-15 | 0.488 | 0.42 | 0.355 | 0.315 | 0.418 | 0.664 | 0.562 | 0.649 | 0.808 | 0.608 | 0.606 | 0.547 | 0.563 | 0.662 | 0.552 | 0.414 | 0.359 | 0.374 | 0.36 | 0.391
HCC-44 | 1.2 | 1.13 | 1.02 | 1.11 | 0.922 | 0.371 | 0.441 | 0.434 | 0.402 | 0.387 | 0.951 | 0.95 | 1.02 | 0.917 | 0.956 | 1.06 | 0.933 | 1.15 | 1.13 | 1.08
HCC-78 | – | – | – | – | – | 0.324 | 0.401 | 0.384 | 0.404 | 0.329 | 0.674 | 0.597 | 0.657 | 0.661 | 0.692 | 0.788 | 0.697 | 0.744 | 1.02 | 0.669
HCC-366 | – | – | – | – | – | 1.13 | 1.06 | 0.847 | 0.955 | 0.654 | 0.363 | 0.281 | 0.348 | 0.37 | 0.402 | 0.378 | 0.326 | 0.374 | 0.381 | 0.313
